Columns and labels:
[1] = system: TK-deficient E. coli strain in which hsvTK was not expressed (hsvTK−); assay: ON selection: 5FdU concentration vs viable cell count, hsvTK−; format: cell-based, Escherichia coli; details: 5FdU 0 to 25 μg/mL, 12 hours
[2] = system: TK-deficient E. coli strain in which hsvTK was expressed (hsvTK+); assay: ON selection: 5FdU concentration vs viable cell count, hsvTK+; format: cell-based, Escherichia coli
Procedure: With the TK-deficient strain of E. coli JW1226, a human herpes virus derived thymidine kinase (hsvTK) was expressed by transfecting pTrc-hsvtk (FIG. 3), and a relationship between the concentration of 5FdU and the survival rate of cells (viable cell count) was investigated.
First, JW1226 cells transfected with pTrc-hsvtk were diluted with 1 mL of positive selection medium so as to achieve an OD600 of 0.002 (approximately 10^6 cells/mL), and cultured at 37° C. for 12 hours while being rotated at 200 rpm. The positive selection medium used was medium containing tryptone at 2% w/v, NaCl at 0.5% w/v, dT at 10 μg/mL, adenosine at 1 μg/mL, and 5FdU at 0 to 25 μg/mL. After the culture, a portion of the resultant culture was collected and inoculated in an LB plate containing ampicillin, and the number of colonies grown was counted as a viable cell count.

[3] = system: alkylating agent-sensitive E. coli strain MV2157; assay: ON-selector function of AAG gene: survival rate under MMS; format: cell-based, Escherichia coli
Procedure: The ON-selector function of the AAG gene was studied. First, alkylating agent-sensitive E. coli strains MV2157 were separately transfected with plasmids containing AAG and variants thereof, specifically, pTrc-aag (WT), pTrc-aag (E125A), and pTrc-aag-ape1 prepared in Example 1, and were compared for their survival rates in the presence/absence of MMS. The E. coli strain transfected with pTrc-aag (E125A) was used as a negative control.
Next, 1 μL of culture was inoculated in LB liquid medium, and cultured at 37° C. for 3 hours. MMS was added at a final concentration of 0 to 40 mM, and culture was conducted at 37° C. for 15 to 60 minutes. […] A value obtained by dividing the viable cell count of the sample to which MMS had been added by the viable cell count of the sample to which MMS had not been added was defined as a survival rate.

[4] = system: E. coli MV2157 transfected with selector plasmid Ver. 2 and Circuit-C or Circuit-D; assay: ON selection of genetic circuit with selector plasmid Ver. 2 under MMS; format: cell-based, Escherichia coli
Procedure: First, E. coli MV2157 transfected with selector plasmid Ver. 2 and Circuit-C (referred to as “ON strain” in Example 3), and E. coli MV2157 transfected with selector plasmid Ver. 2 and […] (referred to as “OFF strain” in Example 3) were prepared. […] The cell density at the time of the MMS treatment is approximately 10^8 cells/mL. […] A value obtained by dividing the viable cell count of the sample to which MMS had been added by the viable cell count of the sample to which MMS had not been added was defined as a survival rate.
Next, time-dependent changes in the survival rates of the ON strain and the OFF strain when MMS was added at 0.2% were investigated. In this case, an ON strain transfected with pTrc-ape1 was prepared and similarly studied for comparison. Culture and treatment with MMS of each strain of E. coli were conducted by similar methods to the methods in the foregoing.

[5] = system: E. coli MV2157 switch strains with selector plasmid Ver. 2; assay: Enrichment efficiency by dual selection, Circuit-B:C:D = 1:100:100; format: cell-based, Escherichia coli; details: 0.4% MMS, 30 minutes, approximately 10^6 cells/mL
Procedure: Next, enrichment efficiency by dual selection was evaluated. Selector plasmid Ver. 2 (FIG. 13-B) was used as a selector plasmid, and the following three kinds of model genetic circuits were used: Circuit-B; Circuit-C; and Circuit-D (see FIGS. 2-B, 2-C, and 2-D). The selector plasmid and one kind of model genetic circuit were transfected into E. coli MV2157. Each switch strain was inoculated in 2 mL of LB medium containing AHL, and cultured at 37° C. for 12 hours. Next, the switch strains having Circuit-B, Circuit-C, or Circuit-D were mixed at an abundance ratio of 1:100:100 in terms of OD. The mixed cell population was subjected to OFF selection by the same method as above, and then cultured at 37° C. for 2 hours. The cells were harvested by centrifugation, the medium was exchanged for M9 minimal medium, MMS was added at a concentration of 0.2%, 0.3%, or 0.4%, and the whole was left to stand still at 37° C. for 30 minutes (ON selection). After that, the medium was exchanged for LB medium, culture was conducted for 12 hours, and plasmids were extracted from the culture solution. The plasmids were transformed together with pλ-gfp into XL10-GOLD™ ultracompetent cells (Agilent Technologies). After that, the transformed cells were inoculated in solid media supplemented and not supplemented with AHL, and the numbers of cells expressing GFP were compared. […]

[6] = system: TK-deficient E. coli strain JW1226 in which hsvTK was expressed (hsvTK+); assay: OFF selection: dP concentration vs viable cell count, hsvTK+; format: cell-based, Escherichia coli; details: dP 0 to 100 nM, 12 hours
Procedure: With the TK-deficient E. coli strain JW1226, human herpes virus derived thymidine kinase (hsvTK) was expressed by transfecting pTrc-hsvtk (FIG. 3), and a relationship between the concentration of dP and the survival rate of cells (viable cell count) was investigated.
First, JW1226 cells transfected with pTrc-hsvtk were cultured in 2 mL of LB medium containing 100 μg/mL of ampicillin at 37° C. overnight. Next, the culture was diluted with 1 mL of fresh LB medium containing dP (at a final concentration of 0 to 100 nM) 1,000-fold (10^6 cells/mL), and stirred and shaken at 37° C. for 12 hours. After the culture, the cells were seeded on an LB-agar (1.5% w/v) plate containing ampicillin at 100 μg/mL. After incubation at 37° C. for 12 hours, the number of colonies grown was counted as a viable cell count.

[7] = system: TK-deficient E. coli strain transfected with a control plasmid pTrc99A (hsvTK−); assay: OFF selection: dP concentration vs viable cell count, hsvTK− control; format: cell-based, Escherichia coli; details: dP 0 to 100 nM, 12 hours
[8] = system: TK-deficient cells transfected with pTrc-hsvtk constantly expressing hsvTK; assay: Rapidity of OFF selection (dP shock); format: cell-based, Escherichia coli; details: dP 1 μM; 5, 30 or 60 minutes
Procedure: First, TK-deficient cells transfected with pTrc-hsvtk (FIG. 3) so as to constantly express hsvTK were cultured under shaking at 37° C. and 200 rpm until an OD of 0.05 (approximately 3×10^7 cells/mL) was achieved. The resultant was dispensed at 1 mL each, dP was added (final concentration: 1 μM), and culture was continued at 37° C. After a lapse of 5, 30, or 60 minutes, 20 μL of the culture (approximately 10^6 cells) were collected and inoculated in an LB plate containing ampicillin, and the number of colonies grown was counted as a viable cell count.

[9] = system: E. coli cell population; details: 37 μM dP; cited from earlier work

Compound: O=c1[nH]c(=O)n([C@H]2C[C@H](O)[C@@H](CO)O2)cc1F [5FdU, 5-fluoro-2′-deoxyuridine]
- viable cell count [1]: decreased with increasing concentrations of 5FdU
- viable cell count ([2]; 5FdU 0 to 25 μg/mL, 12 hours, hsvTK+): decreased at a slow rate
- survival rate of hsvTK+ as compared to hsvTK− ([2]; 5FdU 25 μg/mL): 4.8×10^7 fold

Compound: CS(=O)(=O)O [MMS, methanesulfonic acid]
- survival rates of cells expressing AAG ([3]; MMS 20 mM, 60 minutes): significantly decreased
- enrichment of cells expressing AAG ([3]; MMS treatment 15 to 60 minutes): ~1,000 fold
- survival of all the strains ([3]; MMS ~40 mM): mostly died off
- survival rate of OFF strain (AAG not expressed) ([4]; MMS 0.2-0.4%, 15 to 60 minutes): significantly decreased
- survival rate of ON strain (AAG expressed) ([4]; MMS 0.2-0.4%, 15 to 60 minutes): only slightly reduced
- difference in survival rate between the OFF strain and the ON strain ([4]; MMS 0.4%, 30 minutes): ≥ 10^4 fold
- cell survival in ON selection [5]: all the cells were killed

Compound: O=C1NC2=NOCCC2=CN1[C@H]1C[C@H](O)[C@@H](CO)O1 [dP, 6-(β-D-2-Deoxyribo-furanosyl)-3,4-dihydro-8H-pyrimido[4,5-c][1,2]oxazin-7-one]
- viable cell count [6]: significantly decreased in a dP concentration-dependent manner
- survival rate [7]: no reduction in survival rate
- viable cell count after dP shock [8]: almost zero
- fraction of E. coli cell population killed [9]: 80%

Compound: pTrc-aag (WT): ON-selector plasmid containing a wild-type AAG gene
- MMS resistance ([3]; 3-methyladenine repair enzyme-deficient strain): acquisition of MMS resistance has been confirmed
